Patent publication US20240397946A1 (priority 2021, published 2024)
“And” between values parts separate entries of the source, which are not always exact repeats. Identical values can stand only once. Like-named read-outs stand apart in the source and are kept apart here.

What was measured:
[1] = cited from earlier work; for Classification (acid/base) / dissociation constant - Pka: triazole fungicides, PPDB
[2] = PPDB, cited from earlier work; for Solubility in water: triazole fungicides
[3] = triazole fungicides; PPDB; cited from earlier work
[4] = Levels of fungicides in soybean leaves (total, internal, leaf surface, rainwater) at 3, 6 and 11 DAA, normalized by dose
[5] = Percentage of light absorption of the three active ingredients between 200 and 330 nm; details: for Percentage of light absorption: typical application concentrations
[6] = design: RL50 min / RL50 max / RL50 average: unit not given beside the values; details: cited from earlier work; for average daily rates of degradation: PPDB
[7] = soybean, in vivo
[8] = test system: Corynespora cassiicola; experiment: Target spot severity, AUDPC and control efficiency on soybean, Anaurilândia, MS; details: 2020
[9] = Persistence of fungicides in the plant matrix (RL50, half-life, daily degradation; literature)
[10] = strobilurin group; PPDB / PubChem; cited from earlier work
[11] = Grape, Italy, Fruit, In and On, Open field, Garau 2009
[12] = Green bean, Egypt, Leaves, On, Open field, Hanafi 2010
[13] = Peanut, India, Leaves, In and On, Open field, Rao 2013
[14] = Rice, China, Whole plant, In and On, Open field, Guo 2017
[15] = Spring onion, Egypt, Leaves, On, Open field, Hanafi
[16] = Strawberry, China, Fruit, In and On, Undercover, Zhang 2009
[17] = Strawberry, China, Fruit, On, Undercover, Wang Z. 2015
[18] = Tomato, Fruit, In and On, Undercover, Jankowska 2016

Fc1ccc([C@]2(Cn3cncn3)O[C@H]2c2ccccc2Cl)cc1 (racemic) [epoxiconazole]
Classification (acid/base) [1]: no dissociation

Clc1ccc(C2(Cn3cncn3)OCCO2)c(Cl)c1 [azaconazole]
Solubility in water [2]: 300 mg/L oR PPM | Classification (acid/base) [1]: very weak base | Log Kow (Log de P) [3]: 2.36

Clc1ccc(C2(Cn3cncn3)CC(Br)CO2)c(Cl)c1 (centres unmarked) [bromuconazole]
Solubility in water [2]: 48.3 mg/L oR PPM | Classification (acid/base) [1]: strong acid | Log Kow (Log de P) [3]: 3.24

N#Cc1c(Cl)c(Cl)c(Cl)c(C#N)c1Cl [chlorothalonil]
average total levels for all commercial products and evaluated prototypes ([4]; 03 DAA, 40 to 50 repetitions): 210 (ng/g)/(g/ha) | average total levels for all commercial products and evaluated prototypes ([4]; 06 DAA): 132 ng.ha/g2 | average total levels for all commercial products and evaluated prototypes ([4]; 11 DAA): 66 ng.ha/g2 | solubility [2]: 0.81 ppm | water solubilities [2]: 0.81 mg/L | Percentage of light absorption ([5]; Partial UVA, 315 a 330 nm): 100% | Percentage of light absorption ([5]; Partial UVC, 200 a 280 nm): 98.35% | Percentage of light absorption ([5]; UVB, 280 a 315 nm): 99.95% | ultraviolet light absorbed between 200 and 330 nm ([5]; typical concentrations of application in the field): practically all | average daily rates of degradation ([6]; […]): 12.9% | average daily rates of degradation ([6]; only on the surface of plant tissues): 11.8%

CC(C1CC1)C(O)(Cn1cncn1)c1ccc(Cl)cc1 (centres unmarked) [cyproconazole]
Percentage of light absorption ([5]; Partial UVA, 315 a 330 nm): 0.00000% | Percentage of light absorption ([5]; Partial UVC, 200 a 280 nm): 0.3824% | Percentage of light absorption ([5]; UVB, 280 a 315 nm): 0.00943% | Classification (acid/base) [1]: no dissociation | average total levels for all commercial products and evaluated prototypes ([7]; 3 days after application): 267 (ng/g)/(g/ha) | percentage of the internal content in relation to the total content ([7]; 3 days after application): 69% | average total levels for all commercial products and evaluated prototypes ([7]; 6 days after application): 173 ng.ha/g2 | percentage of the internal content in relation to the total content ([7]; 6 days after application): 62% | average total levels for all commercial products and evaluated prototypes ([7]; 11 days after application): 83 ng.ha/g2 | percentage of the internal content in relation to the total content ([7]; 11 days after application): 85%

CC1COC(Cn2cncn2)(c2ccc(Oc3ccc(Cl)cc3)cc2Cl)O1 (centres unmarked) [difenoconazole]
Classification (acid/base) [1]: strong acid | dissociation constant - Pka [1]: 1.07 | Log Kow (Log de P) [3]: 4.36

N#CC(CCc1ccc(Cl)cc1)(Cn1cncn1)c1ccccc1 (centres unmarked) [fenbuconazole]
Solubility in water [2]: 2.47 mg/L oR PPM | Classification (acid/base) [1]: no dissociation | Log Kow (Log de P) [3]: 3.79

O=c1c2cc(F)ccc2nc(-n2cncn2)n1-c1ccc(Cl)cc1Cl [fluquinconazole]
Classification (acid/base) [1]: strong acid | Log Kow (Log de P) [3]: 3.24

CCCCC(O)(Cn1cncn1)c1ccc(Cl)cc1Cl (centres unmarked) [hexaconazole]
Classification (acid/base) [1]: strong acid

CC1(C)CCC(Cc2ccc(Cl)cc2)C1(O)Cn1cncn1 (centres unmarked) [metconazole]
Classification (acid/base) [1]: very weak acid

CC(Cc1ccc(C(C)(C)C)cc1)CN1C[C@@H](C)O[C@@H](C)C1 (some centres unmarked) [phenpropimorph]
Severity (%) of target spot on soybean plants, Av5 ([8]; fifth assessment): 29.4 D % | Severity (%) of target spot on soybean plants, Av1 ([8]; first assessment): 0% | Severity (%) of target spot on soybean plants, Av4 ([8]; fourth assessment): 8.0 A % | Severity (%) of target spot on soybean plants, Av2 ([8]; second assessment): 1.4 A % | Severity (%) of target spot on soybean plants, Av6 ([8]; sixth assessment): 37.2 C % | area under the disease progress curve (AUDPC) ([8]; target spot, from six severity assessments): 688.9 D | Severity (%) of target spot on soybean plants, Av3 ([8]; third assessment): 4.6 A %

CCCC1COC(Cn2cncn2)(c2ccc(Cl)cc2Cl)O1 (centres unmarked) [propiconazole]
Classification (acid/base) [1]: very weak base | Log Kow (Log de P) [3]: 3.72

OC(Cc1ccccc1Cl)(Cn1nc[nH]c1=S)C1(Cl)CC1 (centres unmarked) [prothioconazole]
Solubility in water [2]: 22.5 mg/L oR PPM | Classification (acid/base) [1]: weak acid | dissociation constant - Pka [1]: 6.9 | Log Kow (Log de P) [3]: 2

COC(=O)N(OC)c1ccccc1COc1ccn(-c2ccc(Cl)cc2)n1 [pyraclostrobin]
Daily percentage of degradation ([9]; in plants, from the literature observations of Table 04): 14.78% | half-life ([9]; in vivo): 104 h | Steam pressure [10]: 2.60E−05 mpa | ionization ([1]; strobilurin group, PPDB / PubChem): not ionizable | RL50 average [6, 11]: 5.40 | RL50 max [6, 11]: 5.40 | RL50 min [6, 11]: 5.40 | RL50 average [6, 12]: 4.30 | RL50 max [6, 12]: 4.30 | RL50 min [6, 12]: 4.30 | RL50 average [6, 13]: 2.86 | RL50 max [6, 13]: 2.88 | RL50 min [6, 13]: 2.84 | RL50 average [6, 14]: 10.10 | RL50 max [6, 14]: 13.90 | RL50 min [6, 14]: 6.30 | RL50 average [6, 15]: 3.10 | RL50 max [6, 15]: 3.10 | RL50 min [6, 15]: 3.10 | RL50 average [6, 16]: 4.06 | RL50 max [6, 16]: 4.06 | RL50 min [6, 16]: 4.06 | RL50 average [6, 17]: 3.70 | RL50 max [6, 17]: 3.70 | RL50 min [6, 17]: 3.70 | RL50 average [6, 18]: 2.78 and 2.70 | RL50 max [6, 18]: 2.78 and 2.70 | RL50 min [6, 18]: 2.78 and 2.70

CC(C)(C)C(O)(CCc1ccc(Cl)cc1)Cn1cncn1 (centres unmarked) [tebuconazole]
Log Kow (Log de P) [3]: 3.7

FC(F)C(F)(F)OCC(Cn1cncn1)c1ccc(Cl)cc1Cl (centres unmarked) [tetraconazole]
Classification (acid/base) [1]: strong acid

CC1(C)CCC(=Cc2ccc(Cl)cc2)C1(O)Cn1cncn1 (centres unmarked) [triticonazole]
Classification (acid/base) [1]: no dissociation

CC(C)(C)C(O)/C(=C\c1ccc(Cl)cc1)n1cncn1 (centres unmarked) [uniconazole]
Classification (acid/base) [1]: very weak acid
